Test results: patent US20040097576A1, “Use of tryptophan derivatives for the specific cytostatic treatment of serotonin-producing tumors” (priority 2001, published 2004)

Legend:
[1] = tested on: tryptophan-hydroxylase (TPH) and aromatic-amino acid-decarboxylase (AAAD); experiment: Intracellular enzymatic metabolisation by TPH and AAAD; type: in vitro ADME; conditions: 7-HTP to 5,7-DHT, 6-HTP to 5,6-DHT
Source text: The invention is put into practice according to the claims. […] These two enzymes, TPH and AAAD, are expressed extraordinarily strong in serotonin-producing tumor cells. Due to the unequally higher TPH-expression in these tumor cells in comparison with normal serotonin-producing tissues, only marginally toxic effects occur in these tissues.
FIG. 1. Reaction scheme of enzymatic metabolisation of 7-hydroxytryptophan (7-HTP) to 5,7-dihydroxytryptamine (5,7-DHT). The rate-limiting first step is mediated by the enzyme tryptophan-hydroxylase (TPH) and is followed by a rapid decarboxylation by the aromatic-amino acid-decarboxylase (AAAD).

[2] = tested on: serotonin-producing mastocytoma cells P815; experiment: Toxicity of 7-HTP on mastocytoma cells P815 (FIG. 3); type: cell-based
[3] = tested on: serotonin-producing cells NG108; experiment: Toxicity of 7-HTP on serotonin-producing cells NG108 (FIG. 2); type: cell-based
Source text: (§1) FIG. 2. […] In contrast, the growth of COS7-cells that produce no serotonin is not affected by 7-HTP.

[4] = tested on: serotonin-producing human carcinoid cells BON; experiment: Toxicity of 7-HTP on human carcinoid cells BON (FIG. 4); type: cell-based
COS7-cells = experiment: Growth of COS7-cells that produce no serotonin (FIG. 2); type: cell-based
Source text: as §1

SMILES | intracellular metabolisation to dihydroxytryptamine toxin [1] | toxicity on the serotonin-producing mastocytoma cells P815 [2] | toxicity on the serotonin-producing cells NG108 ([3]; NG108 cells, FIG. 2) | toxicity on the serotonin-producing human carcinoid cells BON [4] | growth of COS7-cells (COS7-cells) | protection of 7-HTP-sensitive NG108-cells against 7-HTP toxicity ([3]; NG108 cells treated with 7-HTP plus TPH-inhibitor, no 5,7-DHT synthesised intracellularly)
N[C@@H](Cc1c[nH]c2c(O)cccc12)C(=O)O [7-HTP, 7-hydroxytryptophan] | metabolised intracellularly | rapidly and specifically killed | Specific toxicity | rapidly and specifically killed | not affected | 
N[C@@H](Cc1c[nH]c2cc(O)ccc12)C(=O)O [6-HTP, 6-hydroxytryptophan] | metabolised intracellularly |  |  |  |  | 
N[C@@H](Cc1ccc(Cl)cc1)C(=O)O [PCPA, p-chlorophenylalanin, reference compound] |  |  |  |  |  | can be protected
